What was measured:
[1] = in vitro drug release study, aqueous medium containing 1% Tween 80; type: physicochemical; conditions: 24-hour period, FIG. 3
Text: In the drug release study, an aqueous medium containing 1% Tween 80 is used to re-suspend the genistein-containing PLGA particles or the raw genistein. The cumulative release percentage of the encapsulated genistein from the PLGA coated particles and that of the raw genistein without PLGA for a 24-hour period is shown in FIG. 3. […] That may be due to the presence of free and weakly bound drug on the surface of particulate carriers. […] In FIG. 3, the encapsulated genistein from the PLGA coated particles has a cumulative release percentage of below 20% within the first 24 hours while the raw genistein has over 40% of release over the 24-hour period. From this in vitro study, it could be said that the extended release profile of genistein-containing PLGA particles can increase the chance of genistein to be utilized in human body, which further leads to an improved bioavailability. The slower the release rate is, more available active ingredients are released to a specific site of action.

[2] = particle morphology and size under scanning electron microscope (SEM); type: physicochemical
Text: It appears from the SEM images that the particle of genistein with PLGA has a nearly spherical shape and an average size of less than 1 μm. In comparison, the raw genistein is rectangular rod-shaped and the width (i.e., the shortest side of the rectangular rod-shaped raw genistein) is about 10 μm. PLGA matrix can protect genistein from degradation in the gastrointestinal tract and also from first-pass metabolism in the liver. Meanwhile, the nearly spherical shape of the genistein particle with the size less than 1 μm has a larger surface area to favor the interaction between the particle and the target cell in order to increase the chance of localizing on the target cell and delivering the genistein encapsulated in the particle in a controlled release manner.

cumulative release percentage of genistein [1]: over 40% | width (shortest side of rectangular rod-shaped particle) [2]: about 10 μm
Compound: O=c1c(-c2ccc(O)cc2)coc2cc(O)cc(O)c12 [raw genistein, genistein]
